Tests used:
[1] = system: RepA-LacZ (SLI-SLIII interaction of RepA mRNA), plasmid pMU1550; test: RepA-LacZ reporter gene assay; type: cell-based; settings: E. coli JP3923 harboring pMU1550, various concentrations, OD600 ~0.6
Experimental: Small molecules were tested for their ability to imitate the function of RNA I by binding to the RepA mRNA and disrupting the Stem Loop I-Stem Loop III (SLI-SLIII) loop-loop interaction, thus mimicking plasmid incompatibility. Aminoglycosides and their derivatives were selected for testing because of their ability to tightly bind RNA from a variety of sources, particularly regions of distorted RNA secondary structure, such as RNA loops or bulges.
To assess their ability to disrupt the SLI-SLIII interaction in vivo, small molecules were assessed using a RepA-LacZ reporter gene assay. To conduct the assay, the gene encoding β-galactosidase was fused to the RepA gene, incorporated into commercially available plasmid pMU1550. E. coli JP3923 harboring plasmid pMU1550 was grown in minimal media (MM)/Tm([…]) in the presence of various concentrations of the small molecules under evaluation. After reaching the appropriate optical density (˜OD600=0.6), Miller units of b-galactosidase were quantitated as per the standard protocol (see Miller, J. H, Experiments in Molecular Genetics, 1972, p352-355, Cold Spring Harbor Laboratory, Cold Spring Harbor, N.Y.). Any perturbation causing lower RepA production leads to a lowering of the β-galactosidase units upon quantitation A positive control utilizing a plasmid (pMU662) that overexpresses RNAII (containing the SLI-SLIII stretch) gave the expected high b-galactosidase signal. Each experiment was performed on at least three separate occasions.
In a second control, erythromycin A, a general translation inhibitor, was tested using the reporter gene assay.
These experiments gave the expected results.

[2] = system: plasmids differing in copy numbers, size and nature of replication; settings: cited from earlier work
[3] = system: SLIII; test: Direct binding to fluorescein-labeled RNA (fluorescence titration); settings: various apramycin concentrations
Experimental: (§1) The direct binding of apramycin to SLI and SLIII was then assessed in vitro using fluorescently-labeled RNAs.
(§2) For these experiments, RNA oligonucleotides were obtained from Dharmacon Research (Lafayette, Colo.), and were deprotected according to the manufacturer's protocol. The sequence of FI-SLI is FI.C.G.CCA.UAA.GCG.ACA.GCU.UGU.GGC. The sequence of FI-SLIII is FI.UAU.UUU.UCC.UCG.AAC.UUG.GCG.GAA.CGC.AGA.AAA.AUA. All fluorescence measurements were performed on an ISS PC1 spectrofluorometer with slitwidths and lamp current optimized for sufficient signal counts at the given RNA-fluorescein concentration. Deprotected RNA oligonucleotides were made up to 1 mM in 50 mM Tris-HCl, pH 7.3, and folded by heating to 90° C. for 3 min, then slowly cooling to rt. To assess the binding of apramycin to the fluorescently-labeled RNAs, […] of the folded RNA was transferred to a 4×10×48 mm fluorescence cuvette (Starna Cells) and allowed to equilibrate to 37° C. in the spectrofluorometer's sample chamber for 15 minutes. Apramycin was added in […] portions from a stock solution, and a minimum of 5 minutes was allotted for equilibration. Three fluorescence spectra were acquired at each apramycin concentration. The spectra were taken with a 490 nm excitation wavelength and emission intensity was measured from 510-540 nm at an interval of one nanometer. At each point along the spectrum, an average of 3 data points was taken to give an averaged intensity at that integral wavelength. In processing the spectra, the point at 523 nm was chosen as a representative wavelength to monitor change in intensity over a range of apramycin concentrations. The 523 nm data points from each of the three averaged spectra were averaged at each apramycin concentration to give a composite average of nine measurements at 523 nm at each apramycin concentration. All intensity measurements are reported uncorrected for dilutions, as volume change over the course of the experiment is minimal.

[4] = molecular target: SLI; test: as above
Experimental: as §1, §2

[5] = molecular target: SLI-SLIII loop-loop complex; test: In vitro SLI-SLIII loop-loop disruption assay (displacement of fluorescein-labeled SLIII from bead-bound SLI); type: binding; settings: biotinylated SLI on streptavidin agarose bead, fluorescein-labeled SLIII displaced; read-out: Kd for disrupting the SLI-SLIII interaction
Experimental: To further investigate the mechanism by which apramycin causes plasmid elimination, the SLI-SLIII loop-loop interaction was reconstituted in vitro. SLI was biotinylated and bound to a streptavidin coated agarose bead. Fluorescein-labeled SLIII was added to form the loop-loop complex. This complex was then incubated with varous concentrations of apramycin and the amount of SLIII displaced by apramycin was assessed by quantitation of the fluorescence in solution. These experiments indicate that apramycin is disrupting the SLI-SLIII interaction with a Kd of 1 μM.

[6] = system: IncB plasmid pMU2403 encoding β-lactamase; test: Assessment of plasmid elimination (master/replica plating); type: cell-based, E. coli strain JP4821; settings: 25 μg/mL apramycin
Experimental: The anti-plasmid effect of apramycin, paromomycin I and kanamycin B was assessed. In general, plasmid-containing E. coli resistant to ampicillin were cultured using growth media containing subinhibitory (sublethal) amounts of each of these compounds. The bacteria were allowed to reproduce for a defined number of generations, after which the bacteria were plated out onto agar plates containing the tested small molecules. Replicas were then made onto plates containing the tested small molecules and the antibiotic, ampicillin. Colonies that appeared on the master plate, but not the replicas had been rendered sensitive to ampicillin
In particular, E. coli strain JP4821 containing the commercially available IncB plasmid pMU2403, which encodes for β-lactamase, was grown in MM in the presence of 25 μg/mL apramycin for a defined number of generations. Typically, samples of the bacteria were plated out onto LB/Apra^25 plates after 10-12 generations, and replica plates were then made onto LB/Apra^25/Amp^100 plates. Percentage of plasmid lost was calculated by counting the number of colonies successfully replicated and dividing by the total number of colonies on the master plate; the entire plasmid loss assay was performed on two separate occasions. On average, greater than 200 master plate colonies were used for each of these evaluations. Evaluations of paromomycin I and kanamycin B were performed in an analogous fashion, with paromomycin I at 15 mg/mL, and kanamycin B at 10 mg/mL.
To confirm that antibiotic sensitivity was due to plasmid loss, plasmid preparations were performed to isolate plasmid from the non-replicating colonies on the master plate, and from control colonies. No plasmids were isolated from the non-replicating colonies, while plasmid was successfully isolated from the control colonies that did replicate.

## NC[C@@H]1O[C@H](O[C@H]2[C@@H](O)[C@H](O[C@@H]3[C@@H](O)[C@H](N)C[C@H](N)[C@H]3O[C@H]3O[C@H](CO)[C@@H](O)[C@H](O)[C@H]3N)O[C@@H]2CO)[C@H](N)[C@@H](O)[C@@H]1O [paromomycin I]
[1]
  reporter gene signal (Miller units of β-galactosidase): dose dependent decrease

## NC[C@H]1O[C@H](O[C@H]2[C@H](O)[C@@H](O[C@H]3O[C@H](CO)[C@@H](O)[C@H](N)[C@H]3O)[C@H](N)C[C@@H]2N)[C@H](N)[C@@H](O)[C@@H]1O [kanamycin B]
[1]
  reporter gene signal (Miller units of β-galactosidase): dose dependent decrease

## N[C@@H]1[C@H]2CN(c3nc4c(cc3F)c(=O)c(C(=O)O)cn4-c3ccc(F)cc3F)C[C@@H]12 [Trovafloxacin]
[2]
  plasmid curing effect: plasmid curing

## CC[C@H]1OC(=O)[C@H](C)[C@@H](O[C@H]2C[C@@](C)(OC)[C@@H](O)[C@H](C)O2)[C@H](C)[C@@H](O[C@@H]2O[C@H](C)C[C@H](N(C)C)[C@H]2O)[C@](C)(O)C[C@@H](C)C(=O)[C@H](C)[C@@H](O)[C@]1(C)O [Erythromycin A, erythromycin A]
[1]
  reporter gene signal (Miller units of β-galactosidase): no effect

## CN[C@@H]1[C@@H](O[C@H]2O[C@H](CO)[C@@H](N)[C@H](O)[C@H]2O)OC2C[C@@H](N)[C@@H](O[C@H]3[C@H](O)[C@@H](O)[C@H](N)C[C@@H]3N)OC2[C@@H]1O (stereo partly drawn) [apramycin]
[3]
  change in fluorescence of labeled SLIII: no significant change in fluorescence
[4]; 50 mM Tris-HCl pH 7.3, 37° C., read-out: Kd of apramycin-SLI interaction
  Kd: 200 nM
[4]; various apramycin concentrations
  change in fluorescent signal of labeled SLI: significant decrease
[1]
  reporter gene signal (Miller units of β-galactosidase): dose dependent decrease
[5]
  Kd: 1000 nM
[6]; after 220 generations
  plasmid elimination: virtually complete elimination
[6]; overall conclusion
  plasmid elimination: virtually complete elimination of plasmid
[6]; replica plates LB/Apra25/Amp100
  sensitization of bacteria to ampicillin: sensitizes the bacteria to ampicillin

— US20030130169A1, “Methods of treating drug-resistant bacterial infections” (priority 2001, published 2003)
